{"source": "paper PMC9898036", "about": "“VIP152 is a selective CDK9 inhibitor with pre-clinical in vitro and in vivo efficacy in chronic lymphocytic leukemia” (Leukemia, 2022)", "assay_in_all_cases": "DiscoverX KINOMEscan kinase profiling (468 assays)", "format_in_all_cases": "binding", "key": {"human kinome [1]": {"target": "human kinome (Homo sapiens, UniProt Q96NX5)", "conditions": "CAMK1G; 100 nM; read-out: Percent Control", "procedure": "(§1) Kinomescan Kinase Profiling Assay\n(§2) Kinomescan Assay was performed at DiscoverRX and described in Fabian, et al. 2005, Nat.\n(§3) Biotechnol. In brief, kinases were produced and subsequently tagged with DNA for qPCR detection.\n(§4) Streptavidin-coated magnetic beads were bound to biotinylated kinase ligands to serve as a solid support.\n(§5) VIP152 was dissolved in DMSO and tested across a 10 serial threefold dilution set and compared to a test\n(§6) compound and a DMSO control.\n(§7) Kinome map was produced via TreeSpot\n(§8) Analysis from DiscoverRX. […]"}, "human kinome [2]": {"target": "human kinome (Homo sapiens, UniProt O00238)", "conditions": "BMPR1B; 100 nM; read-out: Percent Control", "procedure": "as §1, §2, §3, §4, §5, §6, §7, §8"}, "human kinome [3]": {"target": "human kinome (Homo sapiens, UniProt Q5S007, G2019S)", "conditions": "LRRK2(G2019S); 100 nM; read-out: Percent Control", "procedure": "as §1, §2, §3, §4, §5, §6, §7, §8"}, "human kinome [4]": {"target": "human kinome (Homo sapiens, UniProt P51955)", "sequence (P51955 whole entry)": "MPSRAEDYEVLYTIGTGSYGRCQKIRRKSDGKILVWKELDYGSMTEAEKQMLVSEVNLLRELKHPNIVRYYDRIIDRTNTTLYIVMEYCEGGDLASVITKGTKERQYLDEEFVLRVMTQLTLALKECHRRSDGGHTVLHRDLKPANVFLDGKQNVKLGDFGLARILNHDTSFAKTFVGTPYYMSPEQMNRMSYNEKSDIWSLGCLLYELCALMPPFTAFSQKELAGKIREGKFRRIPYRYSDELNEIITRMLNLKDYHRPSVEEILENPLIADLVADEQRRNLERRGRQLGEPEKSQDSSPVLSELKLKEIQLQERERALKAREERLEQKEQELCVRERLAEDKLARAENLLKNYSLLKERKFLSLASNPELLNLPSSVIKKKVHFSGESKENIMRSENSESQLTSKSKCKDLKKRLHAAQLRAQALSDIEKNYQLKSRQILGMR", "conditions": "read-out: Percent Control", "procedure": "as §1, §2, §3, §4, §5, §6, §7, §8"}, "human kinome [5]": {"target": "human kinome (Homo sapiens, UniProt P42684)", "conditions": "ABL2; 100 nM; read-out: Percent Control", "procedure": "as §1, §2, §3, §4, §5, §6, §7, §8"}, "human kinome [6]": {"target": "human kinome (Homo sapiens, UniProt Q13233)", "conditions": "MAP3K1; 100 nM; read-out: Percent Control", "procedure": "as §1, §2, §3, §4, §5, §6, §7, §8"}, "human kinome [7]": {"target": "human kinome (Homo sapiens, UniProt P35590)", "conditions": "kinase TIE1 (Entrez TIE1); compound concentration 1000 nM; read-out: Percent Control", "procedure": "as §1, §2, §3, §4, §5, §6, §7, §8"}, "human kinome [8]": {"target": "human kinome (Homo sapiens, UniProt Q14004)", "conditions": "read-out: Percent Control", "procedure": "as §1, §2, §3, §4, §5, §6, §7, §8"}, "human kinome [9]": {"target": "human kinome (Homo sapiens, UniProt Q8NI60)", "conditions": "ADCK3 (Entrez CABC1); 100 nM; read-out: Percent Control", "procedure": "as §1, §2, §3, §4, §5, §6, §7, §8"}, "human kinome [10]": {"target": "human kinome (Homo sapiens, UniProt P49761)", "conditions": "CLK3; 100 nM; read-out: Percent Control", "procedure": "as §1, §2, §3, §4, §5, §6, §7, §8"}, "human kinome [11]": {"target": "human kinome (Homo sapiens, UniProt Q9BXA7)", "conditions": "kinase TSSK1B (Entrez TSSK1B); compound concentration 1000 nM; read-out: Percent Control", "procedure": "as §1, §2, §3, §4, §5, §6, §7, §8"}, "human kinome [12]": {"target": "human kinome (Homo sapiens, UniProt P24723)", "sequence (P24723 whole entry)": "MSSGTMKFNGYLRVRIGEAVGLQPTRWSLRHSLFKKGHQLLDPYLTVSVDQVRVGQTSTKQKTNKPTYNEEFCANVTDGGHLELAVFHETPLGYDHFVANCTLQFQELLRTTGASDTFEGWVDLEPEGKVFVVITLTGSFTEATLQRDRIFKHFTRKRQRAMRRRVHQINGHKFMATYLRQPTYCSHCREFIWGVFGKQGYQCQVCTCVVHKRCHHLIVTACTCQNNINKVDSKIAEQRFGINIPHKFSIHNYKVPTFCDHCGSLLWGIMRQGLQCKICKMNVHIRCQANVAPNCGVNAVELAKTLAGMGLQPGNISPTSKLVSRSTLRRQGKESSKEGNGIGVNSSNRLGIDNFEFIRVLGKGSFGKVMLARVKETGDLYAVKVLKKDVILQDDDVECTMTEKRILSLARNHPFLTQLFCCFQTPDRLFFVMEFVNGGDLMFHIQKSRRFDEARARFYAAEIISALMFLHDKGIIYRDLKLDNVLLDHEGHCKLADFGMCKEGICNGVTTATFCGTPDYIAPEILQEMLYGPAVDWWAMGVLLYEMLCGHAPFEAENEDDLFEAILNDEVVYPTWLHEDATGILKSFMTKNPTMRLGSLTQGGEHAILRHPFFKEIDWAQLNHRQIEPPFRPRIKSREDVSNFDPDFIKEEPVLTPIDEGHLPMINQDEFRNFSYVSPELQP", "conditions": "read-out: Percent Control", "procedure": "as §1, §2, §3, §4, §5, §6, §7, §8"}, "human kinome [13]": {"target": "human kinome (Homo sapiens, UniProt P42679)", "conditions": "CTK (Entrez MATK); 100 nM; read-out: Percent Control", "procedure": "as §1, §2, §3, §4, §5, §6, §7, §8"}, "human kinome [14]": {"target": "human kinome (Homo sapiens, UniProt Q8WU08)", "conditions": "kinase YANK1 (Entrez STK32A); compound concentration 1000 nM; read-out: Percent Control", "procedure": "as §1, §2, §3, §4, §5, §6, §7, §8"}, "human kinome [15]": {"target": "human kinome (Homo sapiens, UniProt Q9Y463)", "conditions": "DYRK1B; 100 nM; read-out: Percent Control", "procedure": "as §1, §2, §3, §4, §5, §6, §7, §8"}, "human kinome [16]": {"target": "human kinome (Homo sapiens, UniProt P00533, G719C)", "conditions": "EGFR(G719C); 100 nM; read-out: Percent Control", "procedure": "as §1, §2, §3, §4, §5, §6, §7, §8"}, "human kinome [17]": {"target": "human kinome (Homo sapiens, UniProt Q8WXR4)", "sequence (Q8WXR4 whole entry)": "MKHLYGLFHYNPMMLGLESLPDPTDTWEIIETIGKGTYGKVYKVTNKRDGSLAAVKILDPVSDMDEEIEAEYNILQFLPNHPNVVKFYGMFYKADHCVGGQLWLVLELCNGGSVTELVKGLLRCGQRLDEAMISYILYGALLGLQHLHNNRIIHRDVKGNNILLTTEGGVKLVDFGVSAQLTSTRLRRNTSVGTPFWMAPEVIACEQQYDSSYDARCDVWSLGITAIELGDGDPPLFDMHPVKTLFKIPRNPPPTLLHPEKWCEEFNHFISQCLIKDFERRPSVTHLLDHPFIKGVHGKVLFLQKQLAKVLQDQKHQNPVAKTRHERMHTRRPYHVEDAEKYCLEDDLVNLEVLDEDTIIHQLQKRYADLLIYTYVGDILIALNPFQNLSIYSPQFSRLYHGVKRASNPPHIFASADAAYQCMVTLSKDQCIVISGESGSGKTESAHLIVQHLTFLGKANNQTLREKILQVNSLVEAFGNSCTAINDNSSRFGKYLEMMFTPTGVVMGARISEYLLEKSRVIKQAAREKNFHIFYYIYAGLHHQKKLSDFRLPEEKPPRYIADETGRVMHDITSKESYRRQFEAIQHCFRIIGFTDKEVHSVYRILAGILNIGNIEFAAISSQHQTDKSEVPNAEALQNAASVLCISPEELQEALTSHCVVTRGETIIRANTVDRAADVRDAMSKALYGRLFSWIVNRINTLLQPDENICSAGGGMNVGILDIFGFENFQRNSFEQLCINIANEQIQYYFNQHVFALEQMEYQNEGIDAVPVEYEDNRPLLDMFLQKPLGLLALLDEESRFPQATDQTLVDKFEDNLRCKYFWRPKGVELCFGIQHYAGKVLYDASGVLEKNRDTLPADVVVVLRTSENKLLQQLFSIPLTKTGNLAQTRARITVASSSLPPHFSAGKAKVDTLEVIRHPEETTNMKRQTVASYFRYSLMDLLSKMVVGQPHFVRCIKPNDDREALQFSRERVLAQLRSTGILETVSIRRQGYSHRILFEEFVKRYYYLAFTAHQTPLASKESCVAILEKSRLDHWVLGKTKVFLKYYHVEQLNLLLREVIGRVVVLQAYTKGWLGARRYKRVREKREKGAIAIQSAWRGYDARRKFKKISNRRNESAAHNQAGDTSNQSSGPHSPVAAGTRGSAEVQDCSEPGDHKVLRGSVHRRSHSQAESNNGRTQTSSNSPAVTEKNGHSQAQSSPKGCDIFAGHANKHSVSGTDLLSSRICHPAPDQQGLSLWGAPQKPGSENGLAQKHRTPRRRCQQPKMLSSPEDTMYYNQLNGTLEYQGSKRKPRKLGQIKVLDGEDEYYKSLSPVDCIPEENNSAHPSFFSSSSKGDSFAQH", "conditions": "read-out: Percent Control", "procedure": "as §1, §2, §3, §4, §5, §6, §7, §8"}, "human kinome [18]": {"target": "human kinome (Homo sapiens, UniProt Q9NRH2)", "conditions": "kinase SNRK (Entrez SNRK); compound concentration 1000 nM; read-out: Percent Control", "procedure": "as §1, §2, §3, §4, §5, §6, §7, §8"}, "human kinome [19]": {"target": "human kinome (Homo sapiens, UniProt P21709)", "conditions": "EPHA1; 100 nM; read-out: Percent Control", "procedure": "as §1, §2, §3, §4, §5, §6, §7, §8"}, "human kinome [20]": {"target": "human kinome (Homo sapiens, UniProt P49841)", "conditions": "GSK3B; 100 nM; read-out: Percent Control", "procedure": "as §1, §2, §3, §4, §5, §6, §7, §8"}, "human kinome [21]": {"target": "human kinome (Homo sapiens, UniProt P42680)", "sequence (P42680 whole entry)": "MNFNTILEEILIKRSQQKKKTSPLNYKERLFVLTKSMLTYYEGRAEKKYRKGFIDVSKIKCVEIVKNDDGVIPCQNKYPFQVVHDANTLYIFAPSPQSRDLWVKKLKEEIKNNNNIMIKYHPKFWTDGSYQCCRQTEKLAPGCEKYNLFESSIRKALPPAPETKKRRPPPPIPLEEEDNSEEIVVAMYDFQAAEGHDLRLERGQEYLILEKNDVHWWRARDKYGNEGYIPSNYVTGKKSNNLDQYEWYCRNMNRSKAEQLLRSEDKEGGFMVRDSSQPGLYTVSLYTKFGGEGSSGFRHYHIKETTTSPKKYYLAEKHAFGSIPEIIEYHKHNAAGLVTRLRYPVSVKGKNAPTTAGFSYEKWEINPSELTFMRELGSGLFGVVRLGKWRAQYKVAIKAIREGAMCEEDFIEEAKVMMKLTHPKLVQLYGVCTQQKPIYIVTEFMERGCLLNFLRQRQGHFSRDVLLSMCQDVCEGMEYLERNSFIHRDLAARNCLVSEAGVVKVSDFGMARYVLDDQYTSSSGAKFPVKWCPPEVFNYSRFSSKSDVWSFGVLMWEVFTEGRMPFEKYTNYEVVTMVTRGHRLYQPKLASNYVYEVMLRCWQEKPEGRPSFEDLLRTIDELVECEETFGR", "conditions": "kinase TEC (Entrez TEC); compound concentration 1000 nM; read-out: Percent Control", "procedure": "as §1, §2, §3, §4, §5, §6, §7, §8"}, "human kinome [22]": {"target": "human kinome (Homo sapiens, UniProt Q13131)", "conditions": "AMPK-alpha1 (Entrez PRKAA1); 100 nM; read-out: Percent Control", "procedure": "as §1, §2, §3, §4, §5, §6, §7, §8"}, "human kinome [23]": {"target": "human kinome (Homo sapiens, UniProt Q8TD19)", "sequence (Q8TD19 whole entry)": "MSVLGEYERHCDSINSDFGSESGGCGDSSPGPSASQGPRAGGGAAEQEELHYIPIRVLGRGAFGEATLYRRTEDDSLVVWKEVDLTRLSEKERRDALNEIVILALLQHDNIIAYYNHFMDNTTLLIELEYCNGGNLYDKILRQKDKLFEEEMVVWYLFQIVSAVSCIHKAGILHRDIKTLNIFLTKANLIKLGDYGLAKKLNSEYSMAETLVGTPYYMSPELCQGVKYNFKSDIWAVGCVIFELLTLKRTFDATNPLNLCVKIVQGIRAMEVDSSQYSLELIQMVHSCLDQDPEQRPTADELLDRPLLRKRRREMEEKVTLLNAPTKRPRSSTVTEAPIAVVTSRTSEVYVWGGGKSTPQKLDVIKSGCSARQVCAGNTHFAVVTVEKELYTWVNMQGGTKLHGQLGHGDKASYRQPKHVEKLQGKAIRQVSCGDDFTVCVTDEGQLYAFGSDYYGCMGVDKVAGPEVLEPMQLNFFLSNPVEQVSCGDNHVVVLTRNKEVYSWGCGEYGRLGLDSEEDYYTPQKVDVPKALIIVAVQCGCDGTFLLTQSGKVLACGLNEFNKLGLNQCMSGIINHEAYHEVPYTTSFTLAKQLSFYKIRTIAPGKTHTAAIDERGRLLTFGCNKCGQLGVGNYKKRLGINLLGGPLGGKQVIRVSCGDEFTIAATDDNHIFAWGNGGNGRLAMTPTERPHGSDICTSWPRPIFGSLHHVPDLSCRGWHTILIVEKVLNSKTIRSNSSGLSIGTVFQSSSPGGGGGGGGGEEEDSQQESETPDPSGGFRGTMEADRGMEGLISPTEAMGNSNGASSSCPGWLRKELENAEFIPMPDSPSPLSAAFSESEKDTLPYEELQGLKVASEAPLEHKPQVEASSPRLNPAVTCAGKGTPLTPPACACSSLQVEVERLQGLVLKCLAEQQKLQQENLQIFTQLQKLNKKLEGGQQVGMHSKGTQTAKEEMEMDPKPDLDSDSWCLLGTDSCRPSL", "conditions": "read-out: Percent Control", "procedure": "as §1, §2, §3, §4, §5, §6, §7, §8"}, "human kinome [24]": {"target": "human kinome (Homo sapiens, UniProt O15146)", "conditions": "MUSK; 100 nM; read-out: Percent Control", "procedure": "as §1, §2, §3, §4, §5, §6, §7, §8"}, "human kinome [25]": {"target": "human kinome (Homo sapiens, UniProt Q96GD4)", "conditions": "AURKB; 100 nM; read-out: Percent Control", "procedure": "as §1, §2, §3, §4, §5, §6, §7, §8"}, "human kinome [26]": {"target": "human kinome (Homo sapiens, UniProt Q92772)", "conditions": "CDKL2; 100 nM; read-out: Percent Control", "procedure": "as §1, §2, §3, §4, §5, §6, §7, §8"}, "human kinome [27]": {"target": "human kinome (Homo sapiens, UniProt P53667)", "conditions": "LIMK1; 100 nM; read-out: Percent Control", "procedure": "as §1, §2, §3, §4, §5, §6, §7, §8"}, "human kinome [28]": {"target": "human kinome (Homo sapiens, UniProt P07333)", "sequence (P07333 20-972)": "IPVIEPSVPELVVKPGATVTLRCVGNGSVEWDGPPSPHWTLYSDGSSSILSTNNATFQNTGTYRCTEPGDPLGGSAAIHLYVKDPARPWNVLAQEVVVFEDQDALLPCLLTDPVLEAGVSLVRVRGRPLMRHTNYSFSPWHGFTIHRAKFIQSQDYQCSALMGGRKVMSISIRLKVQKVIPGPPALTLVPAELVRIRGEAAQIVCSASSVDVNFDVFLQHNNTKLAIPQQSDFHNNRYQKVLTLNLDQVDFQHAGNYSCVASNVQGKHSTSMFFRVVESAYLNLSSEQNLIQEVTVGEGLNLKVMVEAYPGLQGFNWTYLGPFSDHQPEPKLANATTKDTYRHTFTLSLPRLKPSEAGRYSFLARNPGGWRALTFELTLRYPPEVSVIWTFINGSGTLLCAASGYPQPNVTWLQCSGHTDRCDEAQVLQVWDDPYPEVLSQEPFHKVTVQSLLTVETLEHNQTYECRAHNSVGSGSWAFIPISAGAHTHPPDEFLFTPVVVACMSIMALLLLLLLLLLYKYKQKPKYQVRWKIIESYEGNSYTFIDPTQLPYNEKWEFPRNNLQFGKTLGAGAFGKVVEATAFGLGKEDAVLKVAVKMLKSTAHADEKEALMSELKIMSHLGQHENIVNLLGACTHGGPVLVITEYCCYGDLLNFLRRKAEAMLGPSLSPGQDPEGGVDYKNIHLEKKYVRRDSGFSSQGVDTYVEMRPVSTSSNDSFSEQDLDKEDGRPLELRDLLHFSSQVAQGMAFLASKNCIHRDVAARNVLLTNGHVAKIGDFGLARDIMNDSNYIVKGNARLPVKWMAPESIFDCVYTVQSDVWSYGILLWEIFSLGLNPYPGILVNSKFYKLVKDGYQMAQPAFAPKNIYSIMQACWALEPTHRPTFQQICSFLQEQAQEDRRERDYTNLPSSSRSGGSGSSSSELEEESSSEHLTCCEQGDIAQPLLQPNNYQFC", "conditions": "100 nM, read-out: Percent Control", "procedure": "as §1, §2, §3, §4, §5, §6, §7, §8"}, "human kinome [29]": {"target": "human kinome (Homo sapiens, UniProt P07949)", "conditions": "kinase RET (Entrez RET); compound concentration 1000 nM; read-out: Percent Control", "procedure": "as §1, §2, §3, §4, §5, §6, §7, §8"}, "human kinome [30]": {"target": "human kinome (Homo sapiens, UniProt Q5VT25)", "conditions": "MRCKA (Entrez CDC42BPA); 100 nM; read-out: Percent Control", "procedure": "as §1, §2, §3, §4, §5, §6, §7, §8"}}, "note": "Read-outs that look alike come from different tables or passages of the source.", "data": [{"compound": "COc1cc(F)ccc1-c1cc(Nc2cc(CS(C)(=N)=O)ccn2)ncc1F", "note": "(centres unmarked) [VIP152]", "values": [{"measurement": "remaining binding at 0.1 µM", "setting": "human kinome [1]", "value": 100, "unit": "%"}, {"measurement": "remaining binding at 0.1 µM", "setting": "human kinome [2]", "value": 95, "unit": "%"}, {"measurement": "remaining binding at 0.1 µM", "setting": "human kinome [3]", "value": 100, "unit": "%"}, {"measurement": "remaining binding at 0.1 µM", "setting": "human kinome [4]; NEK2, 100 nM", "value": 100, "unit": "%"}, {"measurement": "remaining binding at 1 µM", "setting": "human kinome [4]; kinase NEK2 (Entrez NEK2), compound concentration 1000 nM", "value": 84, "unit": "%"}, {"measurement": "remaining binding at 0.1 µM", "setting": "human kinome [5]", "value": 100, "unit": "%"}, {"measurement": "remaining binding at 0.1 µM", "setting": "human kinome [6]", "value": 100, "unit": "%"}, {"measurement": "remaining binding at 1 µM", "setting": "human kinome [7]", "value": 76, "unit": "%"}, {"measurement": "remaining binding at 0.1 µM", "setting": "human kinome [8]", "value": 66, "unit": "%"}, {"measurement": "remaining binding at 0.1 µM", "setting": "human kinome [9]", "value": 100, "unit": "%"}, {"measurement": "remaining binding at 0.1 µM", "setting": "human kinome [10]", "value": 93, "unit": "%"}, {"measurement": "remaining binding at 1 µM", "setting": "human kinome [11]", "value": 92, "unit": "%"}, {"measurement": "remaining binding at 0.1 µM", "setting": "human kinome [12]; PRKCH, 100 nM", "value": 100, "unit": "%"}, {"measurement": "remaining binding at 1 µM", "setting": "human kinome [12]; kinase PRKCH (Entrez PRKCH), compound concentration 1000 nM", "value": 94, "unit": "%"}, {"measurement": "remaining binding at 0.1 µM", "setting": "human kinome [13]", "value": 95, "unit": "%"}, {"measurement": "remaining binding at 1 µM", "setting": "human kinome [14]", "value": 97, "unit": "%"}, {"measurement": "remaining binding at 0.1 µM", "setting": "human kinome [15]", "value": 100, "unit": "%"}, {"measurement": "remaining binding at 0.1 µM", "setting": "human kinome [16]", "value": 100, "unit": "%"}, {"measurement": "remaining binding at 0.1 µM", "setting": "human kinome [17]; MYO3B, 100 nM", "value": 100, "unit": "%"}, {"measurement": "remaining binding at 1 µM", "setting": "human kinome [17]; kinase MYO3B (Entrez MYO3B), compound concentration 1000 nM", "value": 68, "unit": "%"}, {"measurement": "remaining binding at 1 µM", "setting": "human kinome [18]", "value": 90, "unit": "%"}, {"measurement": "remaining binding at 0.1 µM", "setting": "human kinome [19]", "value": 100, "unit": "%"}, {"measurement": "remaining binding at 0.1 µM", "setting": "human kinome [20]", "value": 72, "unit": "%"}, {"measurement": "remaining binding at 1 µM", "setting": "human kinome [21]", "value": 100, "unit": "%"}, {"measurement": "remaining binding at 0.1 µM", "setting": "human kinome [22]", "value": 89, "unit": "%"}, {"measurement": "remaining binding at 0.1 µM", "setting": "human kinome [23]; NEK9, 100 nM", "value": 100, "unit": "%"}, {"measurement": "remaining binding at 1 µM", "setting": "human kinome [23]; kinase NEK9 (Entrez NEK9), compound concentration 1000 nM", "value": 93, "unit": "%"}, {"measurement": "remaining binding at 0.1 µM", "setting": "human kinome [24]", "value": 99, "unit": "%"}, {"measurement": "remaining binding at 0.1 µM", "setting": "human kinome [25]", "value": 99, "unit": "%"}, {"measurement": "remaining binding at 0.1 µM", "setting": "human kinome [26]", "value": 100, "unit": "%"}, {"measurement": "remaining binding at 0.1 µM", "setting": "human kinome [27]", "value": 100, "unit": "%"}, {"measurement": "remaining binding at 0.1 µM", "setting": "human kinome [28]; CSF1R-autoinhibited", "value": 95, "unit": "%"}, {"measurement": "remaining binding at 0.1 µM", "setting": "human kinome [28]; CSF1R", "value": 100, "unit": "%"}, {"measurement": "remaining binding at 1 µM", "setting": "human kinome [29]", "value": 94, "unit": "%"}, {"measurement": "remaining binding at 0.1 µM", "setting": "human kinome [30]", "value": 100, "unit": "%"}]}]}
